Test results published in patent EP4268800A1 (Prescience Biotechnology Inc., priority 2022, dated 2023).
Read-outs that look alike come from different tables or passages of the source.

Tests used:
[1] = cited from earlier work
[2] = LD50 of previous intravenous injection formulation, converted to mice; details: mouse, in vivo, equivalent of the rat value in mice, read-out: lethal dosage 50% (LD50), equivalent in mice
[3] = previous intravenous injection formulation, in rats; cited from earlier work
[4] = tested on: SKOV3 xenograft; assay: Xenograft ovarian tumor in mice; format: in vivo, NOD/SCID mice; details: docetaxel 4 mg/kg, RAP-E 50 mg/kg
Description: Akt and mTOR phosphorylation are frequently detected in ovarian cancer, and SKOV3, an ovarian cancer cell line, is resistant to cis-platinum and doxorubicin.

[5] = tested on: CT26 model; assay: Mouse colon cancer model; format: in vivo, Balb/c mice; details: 5-FU 25 mg/kg, RAP-E 25 mg/kg
Description: CT26 model on Balb/c mice was used as another animal model, classified as three groups: a control group (no drug), a comparative group (administration of 5-FU, dose: 25 mg/kg, Q3d^∗4) and the inventive group (administration of RAP-E formulation, dose: 25 mg/kg, Q3d^∗4). 6 week old Balb/c mice (BioLasco, Ilan, Taiwan) were inoculated subcutaneously with 1^∗10^5 CT26 cells (murine colorectal carcinoma cell). Following tumor inoculation, measuring the tumor size twice a week, and starting treatment when the tumor grows to 80-100 mm^3.

## CO[C@H]1C[C@@H]2CC[C@@H](C)[C@@](O)(O2)C(=O)C(=O)N2CCCC[C@H]2C(=O)O[C@H]([C@H](C)C[C@@H]2CC[C@@H](OC(=O)C(C)(CO)CO)[C@H](OC)C2)CC(=O)[C@H](C)/C=C(\C)[C@@H](O)[C@@H](OC)C(=O)[C@H](C)C[C@H](C)/C=C/C=C/C=C/1C [temsirolimus]
[1]; via intravenous infusion
  bioavailability: up to 100%

## CO[C@H]1C[C@@H]2CC[C@@H](C)[C@@](O)(O2)C(=O)C(=O)N2CCCC[C@H]2C(=O)O[C@H]([C@H](C)C[C@@H]2CC[C@@H](O)[C@H](OC)C2)CC(=O)[C@H](C)/C=C(\C)[C@@H](O)[C@@H](OC)C(=O)[C@H](C)C[C@H](C)/C=C/C=C/C=C/1C [Rapamycin]
[2]
  LD50: 80 mg/kg
[3]
  lethal dosage 50% (LD50): 40 mg/kg

## CO[C@H]1C[C@@H]2CC[C@@H](C)[C@@](O)(O2)C(=O)C(=O)N2CCCC[C@H]2C(=O)O[C@H]([C@H](C)C[C@@H]2CC[C@@H](OCCO)[C@H](OC)C2)CC(=O)[C@H](C)/C=C(\C)[C@@H](O)[C@@H](OC)C(=O)[C@H](C)C[C@H](C)/C=C/C=C/C=C/1C [everolimus]
[1]; in a tablet form
  bioavailability: ~ 20%

## CC(=O)O[C@@]12CO[C@@H]1C[C@H](O)[C@@]1(C)C(=O)[C@H](O)C3=C(C)[C@@H](OC(=O)[C@H](O)[C@@H](NC(=O)OC(C)(C)C)c4ccccc4)C[C@@](O)([C@@H](OC(=O)c4ccccc4)[C@H]21)C3(C)C [docetaxel]
[4]; Q3d*4
  Mean inhibition rate: 53%
[4]; Q3d*4, day 39
  Day 39 tumor inhibition rate: 57%

## O=c1[nH]cc(F)c(=O)[nH]1 [5-FU]
[5]; Q3d*4
  Mean inhibition rate: 11%
  body weight change / toxicity: significant weight loss
[5]; Q3d*4, day 16
  Day 16 tumor inhibition rate: 26%
